Reference: patent US20240158446A1, “CYCLIC COMPOUND HAVING SELECTIVE INHIBITORY ACTION ON KRAS OVER HRAS AND NRAS” (CHUGAI SEIYAKU KABUSHIKI KAISHA, priority 2021, published 2024)
Like-named read-outs stand apart in the source and are kept apart here.

Columns and labels:
[1] = target: GDP-bound KRAS wild-type protein (Homo sapiens, UniProt P01116); experiment: Binding to KRAS by surface plasmon resonance (SPR), Single Cycle Kinetics
[2] = target: GDP-bound NRAS wild-type protein (Homo sapiens, UniProt P01111); experiment: Binding to NRAS by surface plasmon resonance (SPR), Single Cycle Kinetics; conditions: for NRAS/KRAS (ratio of KD value with respect to GDP-bound NRAS wild-type protein to KD value with respect to KRAS): SPR KD ratio NRAS/KRAS, class symbols; for NRAS/KRAS (ratio of KD value for NRAS to KD value for KRAS): GDP-bound NRAS wild-type protein vs GDP-bound KRAS wild-type protein
[3] = target: GDP-bound HRAS wild-type protein (Homo sapiens, UniProt P01112); experiment: Binding to HRAS by surface plasmon resonance (SPR), Single Cycle Kinetics; conditions: for HRAS/KRAS (ratio of KD value with respect to GDP-bound HRAS wild-type protein to KD value with respect to KRAS): SPR KD ratio HRAS/KRAS, class symbols; for HRAS/KRAS (ratio of KD value for HRAS to KD value for KRAS): GDP-bound HRAS wild-type protein vs GDP-bound KRAS wild-type protein
[4] = tested on: human lung cancer strain NCI-H441;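 note: cell proliferation inhibition after four days measured by CellTiter-Glo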
[5] = SPR Single Cycle Kinetics, GDP-bound KRAS wild-type protein, 1:1 binding model, read-out: KRAS KD
[6] = SPR, Single Cycle Kinetics, GDP-bound KRAS wild-type protein, read-out: KRAS KD
[7] = SPR, Single Cycle Kinetics, 1:1 binding model, GDP-bound KRAS wild-type protein, read-out: KRAS KD

Chain of GDP-bound NRAS wild-type protein (P01111 whole entry): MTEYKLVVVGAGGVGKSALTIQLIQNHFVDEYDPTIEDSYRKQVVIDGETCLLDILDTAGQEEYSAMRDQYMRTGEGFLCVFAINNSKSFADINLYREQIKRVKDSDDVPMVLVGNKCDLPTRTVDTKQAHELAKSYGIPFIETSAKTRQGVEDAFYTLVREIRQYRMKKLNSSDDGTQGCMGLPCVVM
Chain of GDP-bound HRAS wild-type protein (P01112 whole entry): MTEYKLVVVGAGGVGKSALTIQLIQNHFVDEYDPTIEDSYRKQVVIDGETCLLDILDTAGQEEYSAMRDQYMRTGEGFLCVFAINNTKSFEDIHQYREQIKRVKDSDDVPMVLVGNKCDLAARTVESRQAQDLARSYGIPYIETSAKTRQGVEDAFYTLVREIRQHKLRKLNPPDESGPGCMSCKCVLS
Chain of GDP-bound KRAS wild-type protein (P01116 whole entry): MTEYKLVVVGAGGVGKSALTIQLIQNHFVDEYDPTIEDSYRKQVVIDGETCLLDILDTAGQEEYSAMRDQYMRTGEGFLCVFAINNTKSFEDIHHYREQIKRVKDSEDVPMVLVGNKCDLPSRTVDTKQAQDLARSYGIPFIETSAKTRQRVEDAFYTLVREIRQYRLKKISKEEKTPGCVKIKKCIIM

| Compound | IC50 [4] [nM] | Kd [1, 6] [nM] | NRAS/KRAS (ratio of KD value for NRAS to KD value for KRAS) ([2]; SPR) | HRAS/KRAS (ratio of KD value for HRAS to KD value for KRAS) ([3]; SPR) | other results |
| --- | --- | --- | --- | --- | --- |
| CCC[C@H]1C(=O)N[C@@H]([C@@H](C)CC)C(=O)N(C2CC2)CC(=O)N(C)[C@H]2C/C=C\CCN(C2=O)[C@@H](Cc2ccc(C(F)F)cc2)C(=O)N(C)CC(=O)N[C@@H](CCc2cc(F)c(C(F)(F)F)c(F)c2)C(=O)N2C[C@H](OCC)C[C@H]2C(=O)NC2(CC(C)(C)C2)C(=O)N(C)[C@@H](C(CC)CC)C(=O)N(C)[C@H](C(=O)N(C)C)CC(=O)N1C [PP2527] | 31 |  |  |  | Kd [1, 5]: 0.65 nM; NRAS/KRAS (ratio of KD value with respect to GDP-bound NRAS wild-type protein to KD value with respect to KRAS) [2]: AA (a compound having 20 or more is denoted as AA); HRAS/KRAS (ratio of KD value with respect to GDP-bound HRAS wild-type protein to KD value with respect to KRAS) [3]: A (a compound having 10 or more and less than 20 is denoted as A) |
| CCCOC[C@H]1C(=O)N[C@@H]([C@@H](C)CC)C(=O)N(C2CC2)CC(=O)N(C)[C@H]2C/C=C\CCN(C2=O)[C@@H](CC2CCC(F)(F)CC2)C(=O)N(C)CC(=O)N[C@@H](CCc2ccc(C(F)(F)F)c(OC)c2)C(=O)N2C[C@@H](C)C[C@H]2C(=O)N(C)C2(CCC2)C(=O)N(C)[C@@H](C2CCCC2)C(=O)N(C)[C@H](C(=O)N(C)C)CC(=O)N1C [PP2379] | 2.2 | 0.76 | A (a compound having 10 or more and less than 20 is denoted as A) | A (a compound having 10 or more and less than 20 is denoted as A) |  |
| CCC[C@H]1C(=O)N[C@@H](CC(C)C)C(=O)N(CCOC)CC(=O)N(C)[C@H]2C/C=C\CCN(C2=O)[C@@H](Cc2ccc(C)cc2)C(=O)N(C)CC(=O)N[C@@H](CCc2ccc(C(F)(F)F)c(Cl)c2)C(=O)N2C[C@H](OCC)C[C@H]2C(=O)NC2(CCC2)C(=O)N(C)[C@@H](C2CCCC2)C(=O)N(C)[C@H](C(=O)N(C)C)CC(=O)N1C [PP2546] | 295 |  |  |  | Kd [1, 5]: 4.7 nM; NRAS/KRAS (ratio of KD value with respect to GDP-bound NRAS wild-type protein to KD value with respect to KRAS) [2]: B (a compound having 3 or more and less than 10 is denoted as B); HRAS/KRAS (ratio of KD value with respect to GDP-bound HRAS wild-type protein to KD value with respect to KRAS) [3]: B (a compound having 3 or more and less than 10 is denoted as B) |
| CCCO[C@@H]1C[C@H]2C(=O)NC3(CCC3)C(=O)N(C)[C@@H](C3CCCC3)C(=O)N(C)[C@H](C(=O)N3CCOCC3)CC(=O)N(C)[C@@H](CC(C)C)C(=O)N[C@@H]([C@@H](C)CC)C(=O)N(C)CC(=O)N(C)[C@H]3CCCCN(C3=O)[C@@H](Cc3ccc(C(F)(F)F)cc3)C(=O)N(C)CC(=O)N[C@@H](CCc3cc(F)c(C(F)(F)F)c(F)c3)C(=O)N2C1 [PP1159] | 13 | 0.036 | C (A compound having a KD ratio of 0.1 or more and less than 3 is denoted as C) | B (a compound having 3 or more and less than 10 is denoted as B) |  |
| CC[C@H](C)[C@@H]1NC(=O)[C@H](CC(C)C)N(C)C(=O)C[C@@H](C(=O)N2CCOCC2)N(C)C(=O)[C@H](C2CCCC2)N(C)C(=O)C2(CCC2)NC(=O)[C@@H]2CCCN2C(=O)[C@H](CCc2cc(F)c(C(F)(F)F)c(F)c2)NC(=O)CN(C)C(=O)[C@H](Cc2ccc(C(F)(F)F)cc2)N2C[C@H](C)[C@H](C)C[C@@H](C2=O)N(C)C(=O)[C@@H]2CCN2C1=O [PP1367] | 29.3 |  |  |  | Kd [1, 7]: 0.34 nM; NRAS/KRAS (ratio of KD value for NRAS to KD value for KRAS) ([2]; SPR, KD ratio class): A (a compound having 10 or more and less than 20 is denoted as A); HRAS/KRAS (ratio of KD value for HRAS to KD value for KRAS) ([3]; SPR, KD ratio class): B (a compound having 3 or more and less than 10 is denoted as B) |
| CCCN1CC(=O)NC2(CCC2)C(=O)N(C)[C@@H](C2CCCC2)C(=O)N(C)[C@H](C(=O)N(C)C)CC(=O)N(C)[C@@H](CC)C(=O)N[C@@H]([C@@H](C)CC)C(=O)N(C)CC(=O)N(C)[C@H]2C/C=C\CCN(C2=O)[C@@H](Cc2ccc(C(F)(F)F)cc2)C(=O)N(C)CC(=O)N[C@@H](CCc2cc(F)c(C(F)(F)F)c(F)c2)C1=O [PP1141] | 424 | 0.32 | AA (a compound having 20 or more is denoted as AA) | A (a compound having 10 or more and less than 20 is denoted as A) |  |
| CCCC[C@H]1C(=O)N[C@@H]([C@@H](C)CC)C(=O)N(C)CC(=O)N(C)[C@H]2C/C=C\CCN(C2=O)[C@@H](Cc2ccc(C(F)(F)F)cc2)C(=O)N(C)CC(=O)N[C@@H](CCc2ccc(C(F)(F)F)c(OC)c2)C(=O)N2C[C@H](OCC)C[C@H]2C(=O)NC2(CC(C)(C)C2)C(=O)N(C)[C@@H](C2CCCC2)C(=O)N(C)[C@H](C(=O)N(C)C)CC(=O)N1C [PP1561] | 2.7 |  |  |  | Kd [1, 7]: 0.064 nM; NRAS/KRAS (ratio of KD value for NRAS to KD value for KRAS) ([2]; SPR, KD ratio class): A (a compound having 10 or more and less than 20 is denoted as A); HRAS/KRAS (ratio of KD value for HRAS to KD value for KRAS) ([3]; SPR, KD ratio class): B (a compound having 3 or more and less than 10 is denoted as B) |
| CCO[C@@H]1C[C@H]2C(=O)NC3(CCCC3)C(=O)N(C)[C@@H](C(CC)CC)C(=O)N(C)[C@H](C(=O)N3CCCC3)CC(=O)N(C)[C@@H](COC)C(=O)N[C@@H]([C@@H](C)CC)C(=O)N(C)CC(=O)N(C)[C@H]3C/C=C\CCN(C3=O)[C@@H](CC3CCCCC3)C(=O)N(C)CC(=O)N[C@@H](CCc3cc(F)c(C(F)(F)F)c(F)c3)C(=O)N2C1 [PP1439] | 87.3 |  |  |  | Kd [1, 7]: 1.2 nM; NRAS/KRAS (ratio of KD value for NRAS to KD value for KRAS) ([2]; SPR, KD ratio class): AA (a compound having 20 or more is denoted as AA); HRAS/KRAS (ratio of KD value for HRAS to KD value for KRAS) ([3]; SPR, KD ratio class): A (a compound having 10 or more and less than 20 is denoted as A) |
| CC[C@H](C)[C@@H]1NC(=O)[C@H](CC)N(C)C(=O)C[C@@H](C(=O)N(C)C)N(C)C(=O)[C@H](C2CCCC2)N(C)C(=O)C2(CCC2)NC(=O)[C@@H]2CCCN2C(=O)[C@H](CCc2cc(F)c(C(F)(F)F)c(F)c2)NC(=O)CN(C)C(=O)[C@H](Cc2ccc(C(F)(F)F)cc2)N2CC/C=C\C[C@@H](C2=O)N(C)C(=O)CN(C)C1=O [PP1135, (2S,8S,14S,20S,23S,27S,30S,36S,38Z)-20-cyclopentyl-8-[2-[3,5-difluoro-4-(trifluoromethyl)phenyl]ethyl]-27-ethyl-N,N,4,19,22,26,32,35-octamethyl-30-[(1S)-1-methylpropyl]-3,6,9,15,18,21,25,28,31,34,42-undecaoxo-2-[[4-(trifluoromethyl)phenyl]methyl]spiro[1,4,7,10,16,19,22,26,29,32,35-undecazatricyclo[34.5.1.0^10,14]dotetracont-38-ene-17,1′-cyclobutane]-23-carboxamide] | 43.9 | 0.094 | A (a compound having 10 or more and less than 20 is denoted as A) | A (a compound having 10 or more and less than 20 is denoted as A) |  |
| CCO[C@@H]1C[C@H]2C(=O)NC3(CCC3)C(=O)N(C)[C@@H](C3CCCC3)C(=O)N(C)[C@H](C(=O)N3CCOCC3)CC(=O)N(C)[C@@H](Cc3cccs3)C(=O)N[C@@H]([C@@H](C)CC)C(=O)N(C)CC(=O)N(C)[C@H]3CCCCCN(C3=O)[C@@H](Cc3ccc(C(F)(F)F)cc3)C(=O)N(C)CC(=O)N[C@@H](CCc3cc(F)c(C(F)(F)F)c(F)c3)C(=O)N2C1 [PP1163] | 93.3 | 0.59 | B (a compound having 3 or more and less than 10 is denoted as B) | B (a compound having 3 or more and less than 10 is denoted as B) |  |
| CCC[C@H]1C(=O)N[C@@H]([C@@H](C)CC)C(=O)N2CCC[C@H]2C(=O)N(C)[C@H]2C/C=C\CCN(C2=O)[C@@H](Cc2ccc(C(F)(F)F)cc2)C(=O)N(C)CC(=O)N[C@@H](CCc2cc(F)c(C(F)(F)F)c(F)c2)C(=O)N2C[C@H](OCC)C[C@H]2C(=O)N(C)C2(CCC2)C(=O)N(C)[C@@H](C2CCCC2)C(=O)N(C)[C@H](C(=O)N2CCCC2)CC(=O)N1C [PP3116] |  | 0.27 | A (a compound having 10 or more and less than 20 is denoted as A) | A (a compound having 10 or more and less than 20 is denoted as A) | Kd ([1]; SPR, Single Cycle Kinetics, 1:1 binding model, read-out: KD value with respect to GDP-bound KRAS wild-type protein): 0.27 nM; ratio of the KD value with respect to GDP-bound NRAS wild-type protein to the KD value with respect to KRAS ([2]; SPR, KD(NRAS)/KD(KRAS)): A (a compound having 10 or more and less than 20 is denoted as A); ratio of the KD value with respect to GDP-bound HRAS wild-type protein to the KD value with respect to KRAS ([3]; SPR, KD(HRAS)/KD(KRAS)): A (a compound having 10 or more and less than 20 is denoted as A); IC50 ([4]; read-out: NCI-H441 cell proliferation inhibitory activity, 50% proliferation inhibitory concentration (IC50 value), NCI-H441, four days, CellTiter-Glo): 7.8 nM |
